Experimental data from patent US10004753B2, “Methods for treating tauopathy” (The J. David Gladstone Institutes, priority 2015, dated 2018).

Columns and labels:
[1] = tested on: HEK293 cells overexpressing hTau (WT) and p300; test: Ac-tau and p-tau Western blot in HEK293 cells treated with salicylate; type: cell-based, human; conditions: 0, 5, 10 mM salicylate for 24 hr
Method: To examine the effects of salicylate treatment on tau acetylation and phosphorylation, HEK293 cells overexpressing hTau (WT) and p300 were treated with sodium salicylate (SS).
FIGS. 1A-1D. Salicylate inhibits p300 and reduces ac-tau and p-tau in vitro (FIG. 1A) HEK293 cells overexpressing wild-type human tau were treated with 0, 5, 10 mM salicylate for 24 hr. Representative Western blot of four experiments. (FIG. 1B) Quantification of ac-tau and p-tau levels in HEK293 cells treated with salicylate. ac-tau/t-tau, p-tau/t-tau in non-treated cells were set as 1. n=4. **, p<0.01, ***, p<0.001 (two-tails unpaired t-test). Error bar, S.E.M. (FIG. 1C) Rat primary cortical neurons infected with lenti-hTau (WT) were treated with 0, 5, or 10 mM salicylate for 24 hr. Representative Western blot of four experiments. (FIG. 1D) Quantification of ac-tau, p-tau and p300 levels in primary neurons treated with salicylate. ac-tau/t-tau, p-tau/t-tau and p300/GAPDH in non-treated cells were set as 1. n=4. *, p<0.05, **, p<0.01, ***, p<0.001 (two-tails unpaired t-test). Error bar, S.E.M.

[2] = tested on: primary neurons, K174Q tau; test: Tau-lowering effect of salicylate on K174Q mutant tau in primary neurons; type: cell-based; conditions: K174 mutated to glutamine
[3] = molecular target: p300 (Homo sapiens, UniProt Q09472); conditions: recently identified; cited from earlier work
Chain of p300 (Q09472 whole entry, species assumed): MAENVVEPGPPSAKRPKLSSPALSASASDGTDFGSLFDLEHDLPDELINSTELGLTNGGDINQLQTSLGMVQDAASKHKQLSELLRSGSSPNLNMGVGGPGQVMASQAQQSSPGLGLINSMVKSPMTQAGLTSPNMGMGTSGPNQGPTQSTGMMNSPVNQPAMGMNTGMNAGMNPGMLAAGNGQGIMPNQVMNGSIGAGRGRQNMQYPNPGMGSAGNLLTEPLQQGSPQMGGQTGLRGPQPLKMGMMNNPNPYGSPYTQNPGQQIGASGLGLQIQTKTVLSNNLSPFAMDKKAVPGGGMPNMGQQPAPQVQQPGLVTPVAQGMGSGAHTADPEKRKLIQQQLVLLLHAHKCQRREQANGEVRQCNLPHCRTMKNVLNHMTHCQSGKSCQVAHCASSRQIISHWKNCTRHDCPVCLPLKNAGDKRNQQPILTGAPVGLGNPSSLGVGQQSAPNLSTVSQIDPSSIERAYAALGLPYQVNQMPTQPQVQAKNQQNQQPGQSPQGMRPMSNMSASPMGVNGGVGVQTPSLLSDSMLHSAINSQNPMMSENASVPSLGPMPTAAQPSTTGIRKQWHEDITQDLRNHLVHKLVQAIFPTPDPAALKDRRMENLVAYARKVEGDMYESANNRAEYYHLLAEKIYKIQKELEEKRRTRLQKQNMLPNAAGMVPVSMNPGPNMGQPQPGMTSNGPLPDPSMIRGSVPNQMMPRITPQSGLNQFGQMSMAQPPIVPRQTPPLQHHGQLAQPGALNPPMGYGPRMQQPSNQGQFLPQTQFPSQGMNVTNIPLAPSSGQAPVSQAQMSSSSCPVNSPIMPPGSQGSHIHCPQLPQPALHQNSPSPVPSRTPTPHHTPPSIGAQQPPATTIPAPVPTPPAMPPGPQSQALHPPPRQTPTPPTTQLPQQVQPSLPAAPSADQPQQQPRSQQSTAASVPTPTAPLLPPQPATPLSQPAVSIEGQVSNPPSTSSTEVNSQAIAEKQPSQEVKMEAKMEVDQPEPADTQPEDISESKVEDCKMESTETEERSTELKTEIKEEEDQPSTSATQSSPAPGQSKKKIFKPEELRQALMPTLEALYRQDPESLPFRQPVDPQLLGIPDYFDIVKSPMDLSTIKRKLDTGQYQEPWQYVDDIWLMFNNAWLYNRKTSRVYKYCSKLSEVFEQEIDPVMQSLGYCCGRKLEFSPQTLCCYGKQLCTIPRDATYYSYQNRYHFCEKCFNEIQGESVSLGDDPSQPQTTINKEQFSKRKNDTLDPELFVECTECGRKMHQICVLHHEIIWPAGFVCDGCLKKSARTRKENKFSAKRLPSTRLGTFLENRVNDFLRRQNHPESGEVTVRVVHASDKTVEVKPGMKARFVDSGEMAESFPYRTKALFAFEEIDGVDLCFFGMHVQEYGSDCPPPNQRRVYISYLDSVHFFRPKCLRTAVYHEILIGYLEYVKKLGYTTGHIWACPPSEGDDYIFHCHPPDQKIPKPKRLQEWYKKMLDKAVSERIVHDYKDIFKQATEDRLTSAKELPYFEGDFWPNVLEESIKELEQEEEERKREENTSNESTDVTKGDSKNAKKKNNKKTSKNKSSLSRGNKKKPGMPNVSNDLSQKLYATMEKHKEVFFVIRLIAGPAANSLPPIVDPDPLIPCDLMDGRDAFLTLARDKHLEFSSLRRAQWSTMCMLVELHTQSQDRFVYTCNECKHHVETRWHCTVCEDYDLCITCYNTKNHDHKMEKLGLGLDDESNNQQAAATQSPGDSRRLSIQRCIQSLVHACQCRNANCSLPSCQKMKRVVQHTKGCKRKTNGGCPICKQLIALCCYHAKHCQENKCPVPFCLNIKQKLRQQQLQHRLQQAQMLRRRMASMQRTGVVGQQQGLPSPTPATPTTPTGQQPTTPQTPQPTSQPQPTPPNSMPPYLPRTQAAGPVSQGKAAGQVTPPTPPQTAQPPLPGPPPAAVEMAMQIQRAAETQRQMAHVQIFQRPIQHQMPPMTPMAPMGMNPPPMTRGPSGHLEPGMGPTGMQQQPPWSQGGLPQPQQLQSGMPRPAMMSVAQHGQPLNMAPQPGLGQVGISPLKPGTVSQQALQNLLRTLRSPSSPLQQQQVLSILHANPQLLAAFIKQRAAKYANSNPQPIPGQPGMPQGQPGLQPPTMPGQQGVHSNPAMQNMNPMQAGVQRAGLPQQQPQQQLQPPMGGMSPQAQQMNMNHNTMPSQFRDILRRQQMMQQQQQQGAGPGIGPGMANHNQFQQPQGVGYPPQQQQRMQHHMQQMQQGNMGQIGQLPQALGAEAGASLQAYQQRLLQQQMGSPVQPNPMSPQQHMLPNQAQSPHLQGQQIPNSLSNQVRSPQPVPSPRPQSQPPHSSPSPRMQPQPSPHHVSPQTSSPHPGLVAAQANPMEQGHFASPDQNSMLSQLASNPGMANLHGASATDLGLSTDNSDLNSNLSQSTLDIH

[4] = tested on: PS19 mice; test: NFT analysis by Gallyas silver staining; type: in vivo, mouse; conditions: female and male cohorts, age 10-11 months
Excerpt: FIGS. 12A and 12B provide silver staining results in neurites from neocortex and hippocampal regions for mice treated with SSA. Analysis of NFTs by Gallyas silver staining (FIG. 12A) and quantification of silver-positive cells in neurites from neocortex and hippocampal regions CA1 and CA3 (FIG. 12B) in vehicle-treated NTG mice and PS19 mice treated with vehicle or SSA. Scale bar, 250 μm (c, top); 25 μm (c, middle and bottom); n=8 mice (age 10-11 months) per genotype per treatment; *P<0.05, unpaired Student's t-test. Values are mean±s.e.m.
Prominent NFTs and dystrophic neurites, positive for Gallyas silver staining, were detected throughout the forebrains in PS19 mice (FIG. 12A).

[5] = tested on: PS19 mice; test: Hippocampal volume and NeuN-positive cell number; type: in vivo, mouse; conditions: 10 months old PS19 mice vs wild-type littermates
Excerpt: The neurodegeneration phenotype of PS19 mice was examined by measuring hippocampal volume and NeuN-positive cell number. […] (FIG. 4A) 10 months old PS19 mice have significant hippocampal volume loss compared to wild-type, which is absent in SSA-treated group. Left. Representative nissl staining of hippocampus from vehicle-treated WT, vehicle-treated PS19 and SSA-treated PS19 mice. ***, p<0.001, *, p<0.05 (two-tails unpaired t-test). Error bar, S.E.M. Scale bar, 500 um. (FIG. 4B) 10 months old PS19 mice have significant reduction of NeuN-positive cells compared to wild-type, which is absent in SSA-treated group. Left. Representative NeuN staining of hippocampus from vehicle-treated WT, vehicle-treated PS19 and SSA-treated PS19 mice. **, p<0.01 (two-tails unpaired t-test). Error bar, S.E.M. (FIG. 4C) NeuN number positively correlates with time spent in target quadrant in dry maze. p=0.0142 (linear regression).

[6] = PK analyses of salsalate (SSA) and salicylic acid (SA) in brain and plasma; type: in vivo, C57B6 mice; conditions: oral gavage, single bolus dose, mice
Method: SSA was administered to C57B6 mice via oral gavage as a single bolus dose. Mice were sacrificed at predetermined time points and plasma and brain tissue samples were harvested for analysis by PPL labs (Redwood City, Calif., USA). SSA and its metabolite SA were measured simultaneously using oxopropanoyloxy benzoic acid as an internal standard solution. To extract SSA/SA from brain, 200 μl of 50% Acetonitrile in 0.1% formic acid was added to 30-50 mg of cortical tissue, followed by homogenization and vortexing. After addition of 200 μl of the internal standard solution, the samples were centrifuged and the supernatants were transferred for injection. To measure SSA/SA in the plasma, 10 μl of plasma samples were mixed with 90 μl H2O and 100 μl of Internal Standard Solution, followed by centrifugation and injection. HPLC was performed using a C18 column following a gradient program (10% to 90% acetonitrile over a period of 6 min) with a flow rate of 0.4 ml/min. The injection volume was ˜5 μl. Mass spectrometry analyses were performed on 3200 Q TRAP system (AB SCIEX, Framingham, Mass. USA.) using an MQL algorithm.

[7] = tested on: AAV-K174Q-injected mice; test: SSA treatment of AAV-K174Q-injected mice; type: in vivo, mouse
Excerpt: FIG. 8 provides (Left) an immunoblot analysis of ac-H2AK5, H2A, p-tau (AT8 and PHF-1), t-tau (HT7) and GAPDH in mice infected with AAV-K174Q and treated with SSA or vehicle; and (Right) a graph depicting the results of a quantification of ac-H2AK5 and H2A. n=11 (vehicle) or 10 (SSA) mice; *P<0.05, unpaired Student's t-test; values are mean±s.e.m.
ELISA analysis of K174Q tau after SSA treatment. n=11 (vehicle) or 10 (SSA) mice; ns, not significant; P=0.3647; unpaired Student's t-test; values are mean±s.e.m.
FIG. 10 provides graphs showing that levels of PHF1-positive p-tau relative to t-tau, or AT8-positive p-tau normalized by t-tau or GAPDH, were not affected by SSA treatment. Levels of PHF-1-positive p-tau normalized to HT7 (left) or AT8-positive p-tau normalized to HT7 (middle) or GAPDH (right) after SSA treatment. n=11 (vehicle) or 10 (SSA) mice; ns, not significant, unpaired Student's t-test. Values are mean±s.e.m.
Nissl staining (left) and hippocampal volume (right) in mice expressing K174Q tau after SSA treatment. Scale bars, 500 μm; n=11 (vehicle) or 10 (SSA) mice; ns, not significant, unpaired Student's t-test. Values are mean±s.e.m.
For AAV-Tau (adeno-associated virus encoding Tau) injection experiments, only male mice were purchased from Jackson Laboratory with the same age and genetic background (C57BL/6) and used for all the experiments. The mice were housed in a pathogen-free barrier facility at UCSF with a 12-h light/dark cycle and ad libitum access to food and water. All behavior experiments were performed during daylight hours. All animal procedures were carried out under University of California, San Francisco, Institutional Animal Care and Use Committee-approved guidelines.
To determine if SSA's beneficial effects involve inhibition of ac-K174 in vivo. Two-month after injecting with AAV-K174Q, mice were treated with SSA daily as previously performed in PS19 mice. Ac-H2AK5 levels were reduced in the SSA-treated group, confirming inhibition of p300 by SSA (FIG. 8). […] Levels of PHF1-positive p-tau relative to t-tau, or AT8-positive p-tau normalized by t-tau or GAPDH, were also not affected by SSA treatment (FIG. 10).

[8] = tested on: PS19 mice; test: Fixed Location Dry Maze; type: in vivo, mouse; conditions: 225 mg/kg oral gavage for 8 weeks; 7-8 month old PS19 mice
Method: For SSA treatment experiments, only female PS19 mice obtained from Jackson Laboratory were used. The mice were housed in a conventional facility at Stanford University (Palo Alto, Calif.<USA) with a 12-h light/dark reverse cycle and ad libitum access to food and water. All behavior experiments of PS19 mice were performed during daylight hours and carried out under Stanford University School of Medicine, Institutional Animal Care and Use Committee-approved guidelines.
The Fixed Location Dry Maze is also called DMP dry maze (Faizi, M., et al. Brain Behav 2, 142-154 (2012)). Experiments were performed at an animal facility at Stanford University (Palo Alto, Calif.). Mice were housed at a standard temperature (22±1° C.), in a reverse light-controlled environment (lights off from 8:30 am to 8:30 pm) with ad libitum access to food and water. Animals are group-housed with minimal enrichment such as shelter (paper towel tubes and nestlets). The experimenter remained blinded to the experimental groups throughout the entire study. […] The subjects were monitored by a video tracking system directly above maze, and the parameters were measured using the computer software Ethovision. […] Time in each quadrant was recorded and memory was assessed by the time spent in the target quadrant versus the other three quadrants. […]

[9] = tested on: PS19 mice; test: Western blot of ac-tau, p-tau, t-tau, p300 and ac-H2A in hippocampal/brain lysate; type: in vivo, mouse
Excerpt: The levels of ac-tau and phospho-tau in the hippocampal lysate of PS19 mice were examined (FIG. 5A).
Salsalate treatment in PS19 mice inhibits p300 activity and reduces tau acetylation. (FIG. 5A) Representative Western blot showing levels of ac-tau, p-tau, t-tau and GAPDH in brain lysate of PS19 mice treated with salsalate (SSA) or vehicle (veh). Wild-type (WT) littermates treated with vehicle and tau knockout (KO) mice were included as controls. (FIG. 5B) Quantification of ac-tau and p-tau levels in brain lysate of PS19 mice treated with vehicle or salsalate. ac-tau/t-tau and p-tau/t-tau in vehicle-treated group were set as 1. n=8. **, p<0.01 (two-tails unpaired t-test). Error bar, S.E.M. (FIG. 5C) Representative Western blot showing levels of p300, ac-H2A(K5), H2A and GAPDH in brain lysate of PS19 mice treated with salsalate (SSA) or vehicle (veh). (FIG. 5D) Quantification of p300 and ac-H2A levels in brain lysate of PS19 mice treated with vehicle or salsalate. p300/GAPDH and ac-H2A/H2A in vehicle-treated group were set as 1. n=8. *, p<0.05 (two-tails unpaired t-test). Error bar, S.E.M.

[10] = AAV-K174Q-injected mice, vs vehicle
[11] = brain lysate of PS19 mice, vs vehicle
[12] = hippocampal lysate of PS19 mice, vs vehicle-treated group

| SMILES | AT8-positive phospho-tau level (p-tau/t-tau) [1] | Ac-tau level (ac-tau/t-tau) [1] | Tau-lowering effect with K174Q mutation [2] | p300 inhibition [3] | Number of Gallyas silver-positive neurons and neurites in cortex and hippocampus [4] | Hippocampal volume [5] | Number of NeuN-positive cells in hippocampal section [5] | Brain penetration [6] | Ac-H2AK5 levels ([7]; AAV-K174Q-injected mice, SSA daily, vs vehicle) | AT8-positive p-tau normalized by t-tau or GAPDH [7, 10] | Hippocampal atrophy (hippocampal volume) [7, 10] | PHF1-positive p-tau relative to t-tau [7, 10] | Levels of t-tau (ELISA) ([7]; K174Q injected mice, vs vehicle treated controls) | Memory retention in probe trial (time in target vs non-target quadrant) [8] | Spatial learning (learning curve) [8] | t-tau levels in PS19 mice ([9]; PS19 mice) | p300 HAT activity as measured by levels of histone acetylation (ac-H2A/H2A) [9, 11] | p300 levels (p300/GAPDH) [9, 11] | AT-8 positive phospho-tau levels (p-tau/t-tau) [9, 12] | ac-tau levels (ac-tau/t-tau) [9, 12] |
| --- | --- | --- | --- | --- | --- | --- | --- | --- | --- | --- | --- | --- | --- | --- | --- | --- | --- | --- | --- | --- |
| O=C(O)c1ccccc1O [salicylate, Salicylic acid] | reduced | significantly reduced by salicylate in a dose-dependent manner | abolished the tau-lowering effects | p300 inhibitor |  |  |  |  |  |  |  |  |  |  |  |  |  |  |  |  |
| O=C(Oc1ccccc1C(=O)O)c1ccccc1O [salsalate] |  |  |  |  | reduced the number of Gallyas silver-positive neurons and neurites | did not show any hippocampal volume loss | did not show any significant difference compared to wild-type | readily penetrates into the brain | reduced | not affected | failed to prevent/reduce hippocampal atrophy | not affected | failed to reduce levels of t-tau | significantly rescued the deficit | did not rescue the learning deficit | tau-lowering effects | significant reduction of p300 HAT activity | trend of reduction in p300 levels | trend of reduction in AT-8 positive phospho-tau levels, although the difference was not significant | significantly lower ac-tau levels |
